Like-named read-outs stand apart in the source and are kept apart here. Each block holds one compound with its values, some of them ahead of it.
Tests used:
[1] = target: T1, human CB2 receptor (Homo sapiens, UniProt P34972); experiment: CB2 receptor affinity, [3H]-CP-55,940 displacement, HEK cell membranes; type: binding; conditions: 10 μM compound, radioligand [3H]-CP-55,940
T1 construct: expressed in transfected cells; host or cells: human embryonic kidney (HEK) cells, Semliki Forest Virus system, membrane preparations
T1 sequence (P34972 whole entry): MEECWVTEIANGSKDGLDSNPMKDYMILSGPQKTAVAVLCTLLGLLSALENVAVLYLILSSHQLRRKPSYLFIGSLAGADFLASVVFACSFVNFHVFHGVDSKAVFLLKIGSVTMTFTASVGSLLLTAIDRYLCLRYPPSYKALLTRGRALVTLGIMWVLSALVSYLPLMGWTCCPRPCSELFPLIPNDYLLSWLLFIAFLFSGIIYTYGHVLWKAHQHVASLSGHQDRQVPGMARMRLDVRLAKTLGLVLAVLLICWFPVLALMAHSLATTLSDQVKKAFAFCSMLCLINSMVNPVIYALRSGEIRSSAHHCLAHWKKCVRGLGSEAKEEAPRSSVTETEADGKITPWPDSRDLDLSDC
Experimental: (§1) The affinity of the compounds of the invention for cannabinoid CB2 receptors was determined using membrane preparations of human embryonic kidney (HEK) cells in which the human CB2 receptor is transiently transfected using a Semliki Forest Virus system in conjunction with [^3H]-CP-55,940 as radioligand. After incubation of freshly prepared cell membrane preparation with the [^3H]-ligand, with or without addition of compounds of the invention, separation of bound and free ligand was performed by filtration over glass fiber filters. Radioactivity on the filter was measured by scintillation counting.
(§2) The ability of the compounds to displace the radioligand [^3H]-CP-55,940 was measured at a concentration of 10 μM and values provided as [% inhibition @ 10 μM] both for the CB 1 and CB2 receptor assay, The lower % inhibition is, the lower the likelihood of side effects based on CB1 or CB2 receptor inhibition is.

[2] = target: T2, human CB1 receptor (Homo sapiens, UniProt P21554); experiment: CB1 receptor affinity, [3H]-CP-55,940 displacement, HEK cell membranes; type: binding; conditions: read-out: CB1 receptor affinity [% inhibition @ 10 μM]
T2 construct: expressed in transfected cells; host or cells: human embryonic kidney (HEK) cells, Semliki Forest Virus system, membrane preparations
T2 sequence (P21554 whole entry): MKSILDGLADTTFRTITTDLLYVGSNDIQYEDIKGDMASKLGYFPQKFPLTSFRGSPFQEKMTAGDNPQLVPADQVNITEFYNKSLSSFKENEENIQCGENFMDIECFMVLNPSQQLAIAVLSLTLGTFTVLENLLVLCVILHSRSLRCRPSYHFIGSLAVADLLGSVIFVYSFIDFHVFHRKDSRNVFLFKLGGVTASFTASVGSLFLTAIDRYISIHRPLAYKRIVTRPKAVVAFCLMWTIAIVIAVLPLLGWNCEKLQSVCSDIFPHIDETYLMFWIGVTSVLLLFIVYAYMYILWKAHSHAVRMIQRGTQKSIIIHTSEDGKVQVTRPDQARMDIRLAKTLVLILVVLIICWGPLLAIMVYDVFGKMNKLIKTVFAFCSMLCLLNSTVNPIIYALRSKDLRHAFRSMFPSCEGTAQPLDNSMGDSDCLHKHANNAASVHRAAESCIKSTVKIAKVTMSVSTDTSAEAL
Experimental: as §1, with “cannabinoid” for “cannabinoid CB2”, “CB1” for “CB2”, “[3H]-CP-55,940” for “[^3H]-CP-55,940”
as §2

[3] = 10 μM compound, radioligand [3H]-CP-55,940

SMILES: COc1cc(CNC(=O)c2cc(-c3ccc(C)c(Cl)c3)c(OCC(F)(F)F)cn2)on1 [Example 73, 4-(3-chloro-4-methylphenyl)-N-((3-methoxyisoxazol-5-yl)methyl)-5-(2,2,2-trifluoroethoxy)picolinamide]
inhibition at 10 µM [1]: 45%
inhibition at 10 µM [2]: 22%

SMILES: O=C(NCc1cc(C(F)(F)F)on1)c1cc(-c2ccc(Cl)cc2)c(OCC(F)(F)F)cn1 [Example 45, 4-(4-chlorophenyl)-5-(2,2,2-trifluoroethoxy)-N-((5-(trifluoromethyl)isoxazol-3-yl)methyl)picolinamide]
inhibition at 10 µM [1]: -2%
inhibition at 10 µM [2]: 37%

SMILES: COc1cc(CNC(=O)c2cc(-c3ccc(Cl)cc3)c(O[C@@H](C)C(F)(F)F)cn2)on1 [Example 37, (S)-4-(4-chlorophenyl)-N-((3-methoxyisoxazol-5-yl)methyl)-5-(1,1,1-trifluoropropan-2-yloxy)picolinamide]
inhibition at 10 µM [1]: 20%
inhibition at 10 µM [2, 3]: 40%

SMILES: O=C(NCc1ccccn1)c1cnc(OC2CCC2)c(-c2ccc(Cl)cc2)c1 [Example 101, 5-(4-chlorophenyl)-6-cyclobutoxy-N-(pyridin-2-ylmethyl)nicotinamide]
inhibition at 10 µM [1]: 37%
inhibition at 10 µM [2, 3]: 45%

SMILES: O=C(NCc1cc(C2CC2)no1)c1ccc(OCC(F)(F)F)c(-c2ccc(Cl)cc2)n1 [Example 47, 6-(4-chloro-phenyl)-5-(2,2,2-trifluoro-ethoxy)-pyridine-2-carboxylic acid (3-cyclopropyl-isoxazol-5-ylmethyl)-amide]
inhibition at 10 µM [1]: 16%
inhibition at 10 µM [2, 3]: 46%

SMILES: O=C(NCc1noc(C2CC2)n1)c1ncc(OCC2CC2)c(-c2ccc(Cl)cc2)n1 [Example 13, 4-(4-chloro-phenyl)-5-cyclopropylmethoxy-pyrimidine-2-carboxylic acid (5-cyclopropyl-[1,2,4]oxadiazol-3-ylmethyl)-amide]
inhibition at 10 µM [1]: 46%
inhibition at 10 µM [2, 3]: 35%

SMILES: CC(C)(C)c1nc(CNC(=O)c2cc(-c3ccc(Cl)cc3)c(OCC3CC3)cn2)cs1 [Example 54, N-((2-tert-butylthiazol-4-yl)methyl)-4-(4-chlorophenyl)-5-(cyclopropylmethoxy)picolinamide]
inhibition at 10 µM [1]: 12%
inhibition at 10 µM [2, 3]: 20%

SMILES: O=C(NCc1cc(C2CC2)no1)c1cc(-c2ccc(Cl)cc2)c(OCC(F)(F)F)cn1 [Example 33, 4-(4-chlorophenyl)-N-((3-cyclopropylisoxazol-5-yl)methyl)-5-(2,2,2-trifluoroethoxy)picolinamide]
inhibition at 10 µM [1]: 26%
inhibition at 10 µM [2, 3]: 33%

SMILES: C[C@H](Oc1cnc(C(=O)NCc2cc(C(F)(F)F)no2)nc1-c1ccc(Cl)cc1)C(F)(F)F [Example 68, (S)-4-(4-chlorophenyl)-N-((3-(trifluoromethyl)isoxazol-5-yl)methyl)-5-(1,1,1-trifluoropropan-2-yloxy)pyrimidine-2-carboxamide]
inhibition at 10 µM [1]: 3%
inhibition at 10 µM [2, 3]: 45%

SMILES: O=C(NCc1cc(C(F)(F)F)on1)c1ccc(OCC2CC2)c(-c2ccc(Cl)cc2)n1 [Example 58, 6-(4-chloro-phenyl)-5-cyclopropylmethoxy-pyridine-2-carboxylic acid (5-trifluoromethyl-isoxazol-3-ylmethyl)-amide]
inhibition at 10 µM [1]: 19%
inhibition at 10 µM [2, 3]: 42%

SMILES: O=C(NCc1coc(C2CC2)n1)c1ccc(OCC2CC2)c(-c2ccc(Cl)cc2)n1 [Example 56, 6-(4-chloro-phenyl)-5-cyclopropylmethoxy-pyridine-2-carboxylic acid (2-cyclopropyl-oxazol-4-ylmethyl)-amide]
inhibition at 10 µM [1]: 32%
inhibition at 10 µM [2, 3]: 38%

SMILES: O=C(NCc1nc(C(F)(F)F)no1)c1cnc(OC2CCC2)c(-c2ccc(Cl)cc2)c1 [Example 92, 5-(4-chlorophenyl)-6-cyclobutoxy-N-((3-(trifluoromethyl)-1,2,4-oxadiazol-5-yl)methyl)nicotinamide]
inhibition at 10 µM [1]: 9%
inhibition at 10 µM [2, 3]: 43%

SMILES: O=C(NCc1nc(C2CC2)no1)c1ncc(OCC2CC2)c(-c2ccc(Cl)cc2)n1 [Example 17, 4-(4-chloro-phenyl)-5-cyclopropylmethoxy-pyrimidine-2-carboxylic acid (3-cyclopropyl-[1,2,4]oxadiazol-5-ylmethyl)-amide]
inhibition at 10 µM [1]: 45%
inhibition at 10 µM [2, 3]: 48%

SMILES: CC(C)(C)c1nc(CNC(=O)c2cc(-c3ccc(Cl)cc3)c(OCC(F)(F)F)nn2)cs1 [Example 65, 5-(4-chloro-phenyl)-6-(2,2,2-trifluoro-ethoxy)-pyridazine-3-carboxylic acid (2-tert-butyl-thiazol-4-ylmethyl)-amide]
inhibition at 10 µM [2, 3]: 18%

Second part, the compound after the results:

inhibition at 10 µM [1]: 16%
inhibition at 10 µM [2, 3]: 41%
SMILES: COCCOc1ncc(C(=O)NCc2nc(C(F)(F)F)no2)cc1-c1ccc(Cl)c(C)c1 [Example 98, 5-(4-chloro-3-methylphenyl)-6-(2-methoxyethoxy)-N-((3-(trifluoromethyl)-1,2,4-oxadiazol-5-yl)methyl)nicotinamide]

inhibition at 10 µM [1]: -4%
inhibition at 10 µM [2, 3]: 26%
SMILES: O=C(NCc1nc(C(F)(F)F)no1)c1cnc(OCCO)c(-c2ccc(Cl)cc2)c1 [Example 102, 5-(4-chlorophenyl)-6-(2-hydroxyethoxy)-N-((3-(trifluoromethyl)-1,2,4-oxadiazol-5-yl)methyl)nicotinamide]

inhibition at 10 µM [1]: 3%
inhibition at 10 µM [2, 3]: 45%
SMILES: N#Cc1ccc(-c2cc(C(=O)NCc3nc(C(F)(F)F)no3)cnc2OCC(F)(F)F)cc1 [Example 87, 5-(4-cyanophenyl)-6-(2,2,2-trifluoroethoxy)-N-((3-(trifluoromethyl)-1,2,4-oxadiazol-5-yl)methyl)nicotinamide]

inhibition at 10 µM [1]: 43%
inhibition at 10 µM [2, 3]: 30%
SMILES: Cc1cc(CNC(=O)c2cc(-c3ccc(Cl)cc3)c(OCC(F)(F)F)cn2)no1 [Example 19, 4-(4-chlorophenyl)-N-((5-methylisoxazol-3-yl)methyl)-5-(2,2,2-trifluoro-ethoxy)picolinamide]

inhibition at 10 µM [1]: 15%
inhibition at 10 µM [2, 3]: 38%
SMILES: O=C(NCc1nc(C(F)(F)F)no1)c1ncc(OCC(F)(F)F)c(-c2ccc(Cl)cc2)n1 [Example 16, 4-(4-chloro-phenyl)-5-(2,2,2-trifluoro-ethoxy)-pyrimidine-2-carboxylic acid (3-trifluoromethyl-[1,2,4]oxadiazol-5-ylmethyl)-amide]

inhibition at 10 µM [1]: 8%
inhibition at 10 µM [2, 3]: 45%
SMILES: COCCOc1ncc(C(=O)NCc2nc(C(F)(F)F)no2)cc1-c1ccc(F)c(F)c1 [Example 96, 5-(3,4-difluorophenyl)-6-(2-methoxyethoxy)-N-((3-(trifluoromethyl)-1,2,4-oxadiazol-5-yl)methyl)nicotinamide]

inhibition at 10 µM [1]: 13%
inhibition at 10 µM [2, 3]: 36%
SMILES: O=C(NCc1cc(C2CC2)no1)c1cc(-c2ccc(Cl)cc2)c(OCC(F)(F)F)nn1 [Example 49, 5-(4-Chloro-phenyl)-6-(2,2,2-trifluoro-ethoxy)-pyridazine-3-carboxylic acid (3-cyclopropyl-isoxazol-5-ylmethyl)-amide]

inhibition at 10 µM [1]: 19%
inhibition at 10 µM [2, 3]: 29%
SMILES: CC(C)c1noc(CNC(=O)c2cc(-c3ccc(Cl)cc3)c(OCC(F)(F)F)cn2)n1 [Example 40, 4-(4-chlorophenyl)-N-((3-isopropyl-1,2,4-oxadiazol-5-yl)methyl)-5-(2,2,2-trifluoroethoxy)picolinamide]

inhibition at 10 µM [1]: 22%
inhibition at 10 µM [2, 3]: 50%
SMILES: C[C@H](Oc1cnc(C(=O)NCc2nc(C(F)(F)F)no2)nc1-c1ccc(Cl)cc1)C(F)(F)F [Example 35, (S)-4-(4-chlorophenyl)-N-((3-(trifluoromethyl)-1,2,4-oxadiazol-5-yl)methyl)-5-(1,1,1-trifluoropropan-2-yloxy)pyrimidine-2-carboxamide]

inhibition at 10 µM [1]: -5%
inhibition at 10 µM [2, 3]: 38%
SMILES: O=C(NCc1cc(C(F)(F)F)on1)c1cnc(OCC(F)(F)F)c(-c2ccc(Cl)cc2)c1 [Example 50, 5-(4-chloro-phenyl)-6-(2,2,2-trifluoro-ethoxy)-N-(5-trifluoromethyl-isoxazol-3-ylmethyl)-nicotinamide]

inhibition at 10 µM [1]: 27%
inhibition at 10 µM [2, 3]: 30%
SMILES: O=C(NCc1nc(C(F)(F)F)no1)c1cnc(OCC(F)(F)F)c(-c2ccc(Cl)c(F)c2)c1 [Example 82, 5-(4-chloro-3-fluorophenyl)-6-(2,2,2-trifluoroethoxy)-N-((3-(trifluoromethyl)-1,2,4-oxadiazol-5-yl)methyl)nicotinamide]

inhibition at 10 µM [1]: 19%
inhibition at 10 µM [2, 3]: 23%
SMILES: O=C(NCc1noc(C2CC2)n1)c1cc(-c2ccc(Cl)cc2)c(OCC(F)(F)F)nn1 [Example 41, 5-(4-chloro-phenyl)-6-(2,2,2-trifluoro-ethoxy)-pyridazine-3-carboxylic acid (5-cyclopropyl-[1,2,4]oxadiazol-3-ylmethyl)-amide]

inhibition at 10 µM [1]: 21%
inhibition at 10 µM [2, 3]: 26%
SMILES: CC(C)c1nc(CNC(=O)c2cc(-c3ccc(Cl)cc3)c(OCC(F)(F)F)cn2)no1 [Example 39, 4-(4-chlorophenyl)-N-((5-isopropyl-1,2,4-oxadiazol-3-yl)methyl)-5-(2,2,2-trifluoroethoxy)picolinamide]

— US9090599B2, “Heteroarylmethyl amides” (Hoffman-La Roche Inc., priority 2010, dated 2015)
